{"source": "patent US12312352B2", "about": "“Use of a DPP-4 inhibitor in SIRS and/or sepsis” (Boehringer ingelheim International GmbH, priority 2012, dated 2025)", "key": {"[1]": {"tested_on": "septic rats", "assay": "Survival of septic rats (LPS 10 mg/kg i.p.) with and without linagliptin treatment", "format": "in vivo, female Wistar rats", "details": "24 hours after LPS 10 mg/kg i.p.; linagliptin diet from 2 days before LPS; LPS alone about 28%; p=0.015 LPS vs. LPS+Linagliptin; preliminary data", "description": "Animals are injected at day 2 with 10 mg/kg LPS (lipopolysaccharide) i.p. and observed for 4 additional days.\nIt should be noted that the survival curve only represents preliminary data (“pseudo Kaplan-Meier-curve”) since the exact time point of death of the rats is not assessed. The female Wistar rats are injected with LPS in the morning, monitored during the day and transferred back to the stable in the evening. Deaths are registered in the morning of the next day."}, "[2]": {"assay": "Mean plasma concentration of linagliptin in rats on linagliptin diet", "format": "in vivo", "details": "diet containing 0.083 mg/kg linagliptin"}, "[3]": {"tested_on": "septic animals", "details": "cited from earlier work"}, "[4]": {"assay": "Safety and tolerability in people with type 2 diabetes"}, "[5]": {"tested_on": "septic mice", "assay": "Survival in experimental sepsis, first study: LPS 20 mg/kg i.p. on Day 6 of 7 days treatment", "details": "linagliptin 5 mg/kg/d in drinking water (p=0.067), liraglutide 0.2 mg/kg/d s.c. injection (p=0.005), placebo/LPS 100% die within 48 h"}, "[6]": {"assay": "Pharmacokinetics of BI 1356 after multiple oral doses (1, 2.5, 5 or 10 mg once daily for 12 days) in patients with type 2 diabetes"}}, "data": [{"molecule": "CC#CCn1c(N2CCC[C@@H](N)C2)nc2c1c(=O)n(Cc1nc(C)c3ccccc3n1)c(=O)n2C", "note": "[linagliptin]", "values": [{"measurement": "mortality", "setting": "[1]", "value": "No mortality"}, {"measurement": "mean plasma concentration", "setting": "[2]", "value": "50 to 150", "unit": "nM"}, {"measurement": "vascular dysfunction, vascular inflammation and aortic, cardiac and blood oxidative stress", "setting": "[3]; experimental sepsis model", "value": "improves vascular dysfunction and vascular inflammation as well as aortic, cardiac, and blood oxidative stress"}, {"measurement": "immune cell infiltration into the vascular tissue", "setting": "[3]; septic animals, previous studies", "value": "prevention of immune cell infiltration into the vascular tissue"}, {"measurement": "safety and tolerability", "setting": "[4]", "value": "placebo-like"}, {"measurement": "survival vs placebo/LPS group", "setting": "[5]", "value": "trend for a higher survival rate"}, {"measurement": "form and route of excretion", "setting": "[6]; human, in vivo", "value": "primarily excreted unchanged via the bile"}, {"measurement": "main organ of excretion", "setting": "[6]; therapeutic oral dose levels", "value": "mainly excreted via the liver"}]}]}
